From patent US20220218725A1, “METHODS AND MATERIALS FOR TREATING CANCER” (Mayo Foundation for Medical Education and Research, priority 2019, published 2022) come the findings set out here.

Each structure is given as a SMILES string.

For the assay, the system named is JeKo-1 cells. In words: Cell viability, Annexin V/PI assay (also IC50 and combination index). The class given is cell-based. The procedure: To assess apoptosis and cellular proliferation, all cell lines were treated with CRM 1 inhibitors (concentration ranging from 0.05-2 μM) and salicylates at concentrations ranging from (0.001-10 mM) for 48 hours before analysis was performed. DMSO was used to substitute the drug in controls.
After 48 hours incubation, cells were washed with Annexin buffer solution and stained with both propidium iodide (PI) and FITC-Annexin V (Life Technologies), and assayed on a BD Accuri flow cytometer (BD Biosciences). Apoptosis results were analyzed with BD CellQuest software. For cell cycle analysis, Jeko-1 cell line was intubated with CRM 1 inhibitors (concentrations ranging from […]) and salicylates (concentration at 3 mM) and Ly-1 cell line was intubated with CRM 1 inhibitors (concentrations ranging from 0.1-2.0 μM) and salicylates (concentration at 0.5-5 mM) for 24 and 48 hours and then fixed with 95% cold ethanol and kept at 4 C° for 24 h and subsequently underwent cell cycle analysis after PI staining and analysis was performed using BD FACS caliber flow cytometer (BD Biosciences) and FlowJo software (Tree Star).
Cell lines were purchased from the cell line repositories ATCC (Manassas, Va.) or DSMZ (Braunschweig, Germany). These included MCL cell lines: JeKo-1, Mino; TCL cell lines: Karpas-299, SR-786; DLBCL cell lines: OCI-Ly1 (LY-1), OCI-Ly3 (LY-3), OCI-Ly19 (LY-19), SU-DHL-6 (DHL-6); MM cell lines: RPMI, U266, OPM2, Xgl, KMS2; ALL cell lines: CRL-1783; non-small cell lung cancer: NCI-H460, A549, HCC827; small cell lung cancer: H1048; sarcoma: Fuji, SW872. Cell lines were cultured according to instruction.
KPT-330 purchased from Selleckchem (cat no: S7252) was dissolved in DMSO while CS (Santa Cruz, Calif.S 2016-36-6), sodium salicylate (Sigma-Aldrich, cat no: S3007), acetyl salicylate (Sigma-Aldrich, cat no: CAS 50-78-2) was diluted in PBS. Ketorolac (Sigma-Aldrich, cat no: 1356665), Bortezomib (Selleckchem, cat no: S1013), gemcitabine (Sigma-Aldrich, cat no: G6423), Leptomycin-B (Sigma-Aldrich, cat no: L2913-2X) and KPT-185 (Selleckchem, cat no: S7125) were dissolved in DMSO. The concentration range of KPT-330 was 0.05-1.0 μM while CS was 1-3 mM were used for ex vivo treatment and incubation time ranged from 24 hours to 72 hours. For the PARP inhibitor assay, olaparib 10 μM (SelleckChem, cat no: AZD2281 Ku-0059436) was used.
The viability assessment for cell lines and primary patients samples were conducted with the Annexin V/PI method.
Jeko-1 and OCI-Ly1 cell lines were used to assess the IC50. Keeping CS at 3 mM, KPT-330 was titrated. Relative IC50 was calculated as described elsewhere (see, e.g., Sebaugh et al., Pharmaceutical statistics 10:128-134 (2011)). The combination index was calculated as described elsewhere (see, e.g., Chou et al., Cancer Res 70:440-446 (2010)).

In the case of `O=C(c1cc(Cc2n[nH]c(=O)c3ccccc23)ccc1F)N1CCN(C(=O)C2CC2)CC1` [Olaparib, olaparib], the “antitumor activity with PARP inhibitor” value (JeKo-1, olaparib 10 μM, KPT-330 0.5 μM, CS 3 mM, 48 h, AnnexinV/PI) is recorded as “did not have any antitumor activity”.
With `CC(C)[C@H](NC(=O)c1ccc2ccccc2n1)C(=O)N[C@@H](CC(=O)O)C(=O)COc1c(F)cccc1F` [Q-VD-OPh], the “effect of pan-caspase inhibitor on K+CS induced cell death” value (JeKo-1, 48 hours, KPT-330 0.5 μM and CS 3 mM) is “rescued cells from K+CS induced cell death”.
In the case of `Cc1cn([C@H]2C[C@H](O)[C@@H](CO)O2)c(=O)[nH]c1=O` [thymidine], the “cell viability after K+CS treatment with exogenous thymidine” value (JeKo-1 in thymidine-free media, 0.5 μM KPT-330, 3 mM CS, 10 μM thymidine, 48 hours) is given as “statistically significant increase in cell viability”.
